We go through 16 compounds from publication PMC4130903 (Bioorganic & medicinal chemistry letters, 2014).

Read-outs that look alike come from different tables or passages of the source.

Usually Emax stands for the size of the effect at its maximum, as opposed to the concentration needed. In general, EC50 refers to the concentration needed to bring the measured effect to its halfway point.

The target in assay [1] is T1, NTSR1 (Homo sapiens, UniProt P30989). As to the kind of experiment: Ca2+ assay in the presence and absence of antagonist 5. As to conditions: in the presence of antagonist 5 (SR 48692); Figure S1. Format: cell-based.
T1 sequence (P30989 whole entry, species assumed): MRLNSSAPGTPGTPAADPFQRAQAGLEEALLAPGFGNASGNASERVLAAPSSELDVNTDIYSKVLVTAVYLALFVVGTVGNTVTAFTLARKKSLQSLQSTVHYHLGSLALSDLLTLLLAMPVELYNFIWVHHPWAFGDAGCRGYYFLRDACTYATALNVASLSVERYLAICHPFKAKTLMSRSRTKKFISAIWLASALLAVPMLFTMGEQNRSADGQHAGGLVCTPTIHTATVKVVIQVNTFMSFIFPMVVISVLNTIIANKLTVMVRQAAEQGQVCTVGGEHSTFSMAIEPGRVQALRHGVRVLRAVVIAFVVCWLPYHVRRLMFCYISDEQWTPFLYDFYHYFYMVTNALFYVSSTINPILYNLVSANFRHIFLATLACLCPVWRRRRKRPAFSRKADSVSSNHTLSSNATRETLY
Assay [2] concerns the target T1, NTSR1. Format: cell-based. The following applies: for Emax: % of the response obtained with the NT(8–13) peptide, average ± SEM, n = 4; for NTSR1 activity (in words): Ca2+ mobilization assay.
In assay [3] the target is T1, NTSR1. As to conditions: NTSR1 antagonists; cited from earlier work.
In assay [4] the target is T1, NTSR1. As to conditions: Wyeth compound 1, literature value; cited from earlier work.

With `CC(C)C[C@H](NC(=O)Cn1ccc2cc(-c3cncc4ccccc34)ccc21)C(=O)O` [Compound 21], in assay [1], the “NTSR1 stimulatory activity in the presence of antagonist 5” value (from here on “NTSR1 stimulatory activity”) is reported as “abolished”.
In assay [2], `CC(C)C[C@H](NC(=O)Cn1ccc2cc(-c3cnc4ccccc4c3)ccc21)C(=O)O` [Compound 8] displayed a maximum response (Emax) of 100%. Besides, the “Potency improvement compared to parent compound 1” value in assay [2] (EC50 versus compound 1 (EC50 = 178 μM)) is on record as ~ 90 fold. In assay [1], the “NTSR1 stimulatory activity” value is listed as “abolished”.
On to `CC(C)C[C@H](NC(=O)Cn1ccc2cc(-c3cccc4ccccc34)ccc21)C(=O)O` [Compound 17], for which, in assay [2], the EC50 was 3 µM and the Emax came out at 100%. Besides, the “NTSR1 stimulatory activity” value in assay [1] is on record as “abolished”.
With `CC(C)C[C@@H](CO)NC(=O)Cn1ccc2cc(-c3cnc4ccccc4c3)ccc21` [Compound 26], the “NTSR1 activity (in words)” value in assay [2] is recorded as “loss of activity”.
Same read-out and setting: the entry for `CC(C)C[C@@H](NC(=O)Cn1ccc2cc(-c3cnc4ccccc4c3)ccc21)C(=O)O` [Compound 32] is “no activity”.
`CC(C)C[C@H](NC(=O)Cn1ccc2ccccc21)C(=O)O` [Compound 12]: the “NTSR1 stimulatory activity” value in assay [1] was “abolished”.
Turning to `COC(=O)[C@H](CC(C)C)NC(=O)Cn1ccc2cc(-c3cccc4ccccc34)ccc21` [Compound 34], the “NTSR1 activity (in words)” value in assay [2] is “abolished activity”.
With `COc1cccc(OC)c1-c1cc(C(=O)NC2(C(=O)O)C3CC4CC(C3)CC2C4)nn1-c1ccnc2cc(Cl)ccc12` (stereo not drawn) [Compound 5], in assay [3], the Binding affinity entry is reported as “low nanomolar range”.
Consider `CC(C)C[C@H](NC(=O)Cn1ccc2ccc(-c3cnc4ccccc4c3)cc21)C(=O)O` [Compound 39], for which the “NTSR1 stimulatory activity” value in assay [1] was “abolished”.
Take `CC(C)C[C@H](NC(=O)Cn1ccc2cc(NS(=O)(=O)c3cccc4cccnc34)ccc21)C(=O)O` [Compound 7]: the “NTSR1 stimulatory activity” value in assay [1] is given as “abolished”.
The compound `O=C(Cn1ccc2cc(-c3cnc4ccccc4c3)ccc21)N[C@@H](Cc1ccccc1)C(=O)O` [Compound 31] displayed an EC50 in assay [2] of 4 µM.
Consider `COc1cccc(OC)c1-c1cc(C(=O)NC2(C(=O)O)C3CC4CC(C3)CC2C4)nn1-c1ccc(C(=O)N(C)CCCN(C)C)cc1C(C)C` (stereo not drawn) [Compound 6], for which, in assay [3], the Binding affinity entry is given as “low nanomolar range”.
As to `CC(C)C[C@@H](NC(=O)Cn1ccc2cc(NS(=O)(=O)c3cccc4cccnc34)ccc21)C(=O)O` [Compound 1, reference compound], in assay [2], the EC50 is greater than 100 µM. Further, in assay [4], the Emax was 17%.
Take `COC(=O)[C@H](CC(C)C)NC(=O)Cn1ccc2cc(-c3cnc4ccccc4c3)ccc21` [Compound 25]: the “NTSR1 activity (in words)” value in assay [2] was “loss of activity”.
As to `CC(C)C[C@H](NC(=O)Cn1ccc2ccc(-c3cccc4ccccc34)cc21)C(=O)O` [Compound 40], in assay [1], the “NTSR1 stimulatory activity” value is “abolished”.
Still for that read-out and setting: as for `CC(C)C[C@H](NC(=O)Cn1ccc2cc(-c3cnc4ccccc4c3)ccc21)c1nn[nH]n1` [Compound 27], the entry is “abolished”.
